# Experimental data published in patent US10961163B2, “Compositions and methods useful for enhancing the microbial conversion of nitrate into ammonium” (The Regents of the University of California, priority 2016, dated 2021).
# Tested on: microbial enrichment cultures
# Assay: Inhibitory potency (IC50) of inorganic compounds against growth and ammonium production, microbial enrichment with yeast extract
# Type: cell-based
# Settings: not given
row,Compound,NH4^+ IC50/growth IC50 ratio
1,CC(=O)c1ccc(O)cc1 [4-Hydroxyacetophenone],1.3700
2,Cl.N [Ammonium chloride],1.0157
3,N.N.O.O=S(O)O [Ammonium sulfite monohydrate],2.0739
4,O.O.O.O.O.[Cd+2].[Cd+2].[Cl-].[Cl-].[Cl-].[Cl-] [Cadmium chloride hemipentahydrate],0.2809
5,[Ce+3].[Cl-].[Cl-].[Cl-] [Cerium(III) chloride],0.0189
6,[Cl-].[Cs+] [Cesium chloride],30.1708
7,O.O.O.O.O.O.[Cl][Cr]([Cl])[Cl] [Chromium(III) Chloride Hexahydrate],0.0003
8,O.O.O.O.O.O.[Cl-].[Cl-].[Co+2] [Cobalt chloride hexahydrate],22.1846
9,[Cl-].[Cl-].[Cl-].[Eu+3] [Europium(III) chloride],0.1036
10,[Cl-].[Cl-].[Cl-].[Ga+3] [Gallium(III)chloride],1.0037
11,Cl.NO [Hydroxylamine hydrochloride],0.3854
12,[Cl][Pb][Cl] [Lead(II)chloride],0.0174
13,[Cl-].[Li+] [Lithium chloride],3.4054
14,[Cl-].[K+] [Potassium Chloride],0.4776
15,O.O=[Te]([O-])[O-].[K+].[K+] [Potassium tellurite hydrate],0.1044
16,O=S(=O)([O-])CCBr.[Na+] [Sodium 2-bromoethanesulfonate],5.3024
17,[Na+].[O-][Cl+2]([O-])[O-] [Sodium Chlorate],1.9090
18,[Cl-].[Na+] [Sodium Chloride],21.9487
19,O.O.O.O.O.O.O.O=[As]([O-])([O-])O.[Na+].[Na+] [Sodium arsenate dibasic heptahydrate],3.2618
20,O=C([O-])O.[Na+] [Sodium bicarbonate],0.3242
21,O=C([O-])[O-].[Na+].[Na+] [Sodium carbonate],0.5039
22,C[C@H](CCC(=O)[O-])[C@H]1CC[C@H]2[C@@H]3[C@H](O)C[C@@H]4C[C@H](O)CC[C@]4(C)[C@H]3C[C@H](O)[C@]12C.O.[Na+] [Sodium cholate hydrate],5.9537
23,O=[As][O-].[Na+] [Sodium m-arsenite],3.9664
24,CS(=O)(=O)[O-].[Na+] [Sodium methanesulfonate],0.4289
25,[Na+].[Na+].[O]=[Mo](=[O])([O-])[O-] [Sodium molybdate],6.7259
26,O=[N+]([O-])[O-].[Na+] [Sodium nitrate],3.4080
27,O=NO [Sodium nitrite],0.3023

row,Compound,NH4^+ IC50/growth IC50 ratio
1,[O-][Cl+3]([O-])([O-])O [Sodium perchlorate monohydrate],5.2779
2,[Na+].[O-][I+3]([O-])([O-])[O-] [Sodium periodate],7.8824
3,O.O=P([O-])(O)O.[Na+] [Sodium phosphate monobasic monohydrate],0.3418
4,O=[PH](O)O [Sodium phosphite dibasic pentahydrate],1.3336
5,O=[Se](=O)(O)O [Sodium selenate],10.0581
6,O.O.O.O.O.O=[Se]([O-])[O-].[Na+].[Na+] [Sodium selenite pentahydrate],0.2998
7,O=S(=O)([O-])[O-].[Na+].[Na+] [Sodium sulfate],1.0000
8,O.O.O.O.O.O=S([O-])([O-])=S.[Na+].[Na+] [Sodium thiosulfate pentahydrate],0.5741
9,[Cl-].[Cl-].[Sr+2] [Strontium chloride],3.3568
10,CC(=O)[O-].[Tl+] [Thallium(I) acetate],0.3751
11,[Cl-].[Cl-].[Zn+2] [Zinc chloride],0.1037
12,O=[Te](=O)([O-])[O-].[K+].[K+] [potassium tellurate],1.7673
13,[Cl-].[Rb+] [rubidium chloride],1.4483
14,O=S(=O)([O-])[O-].[Ag+].[Ag+] [silver sulfate],1.9192
15,[Br-].[Na+] [sodium bromide],0.5766
16,[F-].[Na+] [sodium fluoride],1.6628
17,[I-].[Na+] [sodium iodide],0.2617
18,O=S([O-])[O-].[Na+].[Na+] [sodium sulfite],2.4699
19,Barium chloride dihydrate,0.1756
20,Calcium chloride dihydrate,0.1455
21,Manganese (II) chloride tetrahydrate,0.0037
22,Nickel (II) chloride hexahydrate,53.6273
23,Sodium Chlorite,1.2683
24,Sodium deoxycholate monohydrate,0.0027
25,Sodium metavanadate,13.0898
26,Sodium thiophosphate tribasic hydrate,0.8963
27,Sodium tungstate dihydrate,1.8289

# Same assay, conditions: microbial enrichment with complex carbon source (yeast extract), serial dilutions of inorganic compound; higher ratio favors ammonium production
row,Compound,NH4^+ IC50/growth IC50 ratio
1,"O=C1c2ccc(S(=O)(=O)O)cc2C(=O)c2cc(S(=O)(=O)O)ccc21 [AQDS, 9,10-Anthraquinone-2,7-disulphonic acid]",6.4905
2,"O=C(O)CC(NCCNC(CC(=O)O)C(=O)O)C(=O)O (centres unmarked) [Ethylenediamine-N,N′-disuccinic acid]",44.3418
3,[Cl][Fe]([Cl])[Cl] [Ferric chloride],0.2642
4,O=C(O)c1cc(O)c(O)c(O)c1 [Gallic Acid],4.9374
5,O=C(O)CN(CC(=O)O)CC(=O)O [Nitrilotriacetic acid],0.4756
6,[Cl][Pd][Cl] [Palladium(II) chloride],0.4739
7,O=S(=O)([O-])CCS.[Na+] [Sodium 2-mercaptoethanesulfonate],13.0401
8,OCl [Sodium hypochlorite],0.0048
9,O=P([O-])(O)OP(=O)([O-])O.[Na+].[Na+] [Sodium pyrophosphate dibasic],0.6988
10,COc1cc(CO)ccc1O [Vanillyl Alcohol],2.0632
11,CS(C)(=O)=O [dimethyl sulfone],2.0187
12,Aluminum chloride hydrate,0.0961

# Tested on: microbial enrichment cultures
# Assay: Ammonium production normalized by growth (NH4+/OD ratio) of microbial enrichment cultivated on individual carbon sources
# Type: cell-based
# Settings: not given
row,Compound,Ammonium/OD ratio
1,CC(=O)[O-].[K+] [Potassium acetate],0.98
2,O.O=C([O-])C(=O)[O-].[K+].[K+] [Potassium oxalate monohydrate],1.13
3,Cl.Cl.NCCCCN [Putrescine Dihydrochloride],1.20
4,O.O.O=C([O-])CC(O)(CC(=O)[O-])C(=O)[O-].[Na+].[Na+].[Na+] [Trisodium citrate dihydrate],1.73
5,L-tyrosine disodium salt,0.87

# Same assay, conditions: average of 8 independent cultures amended with varying concentrations of the carbon source; ammonium by colorimetric (Bertholet) assay, growth by OD 600
row,Compound,Ammonium/OD ratio
1,CC(=O)N[C@H]1C(O)O[C@H](CO)[C@@H](O)[C@@H]1O (stereo partly drawn) [N-Acetyl-D-Glucosamine],1.07
2,O=C1NC(=O)C(=O)N1 [Parabanic Acid],1.12
3,C[C@@H](O)C(=O)[O-].[Na+] [Sodium D-Lactate],1.16
4,O=C[O-].[Na+] [Sodium Formate],0.72
5,O=C([O-])/C=C/C(=O)[O-].[Na+].[Na+] [Sodium Fumarate dibasic],0.81
6,C[C@H](O)C(=O)[O-].[Na+] [Sodium L-Lactate],1.35
7,CCCC(=O)[O-].[Na+] [Sodium butyrate],1.04
8,CCCCCCCC(=O)[O-].[Na+] [Sodium octanoate],1.21
9,CCC(=O)[O-].[Na+] [Sodium propionate],0.94
10,CC(=O)C(=O)[O-].[Na+] [Sodium pyruvate],0.96
11,O.O.O.O.O.O.O=C([O-])CCC(=O)[O-].[Na+].[Na+] [Sodium succinate dibasic hexahydrate],1.03
12,OC[C@H]1O[C@@](CO)(O[C@H]2O[C@H](CO)[C@@H](O)[C@H](O)[C@H]2O)[C@@H](O)[C@@H]1O [Sucrose],1.07
13,Cc1cn([C@H]2C[C@H](O)[C@@H](CO)O2)c(=O)[nH]c1=O [Thymidine],1.06
14,Cc1c[nH]c(=O)[nH]c1=O [Thymine],1.13
15,O=c1ccn([C@@H]2O[C@H](CO)[C@@H](O)[C@H]2O)c(=O)[nH]1 [Uridine],0.96
16,OC[C@@H](O)[C@H](O)[C@@H](O)CO [Xylitol],1.13
17,OC[C@H]1O[C@@H]2O[C@H]3[C@H](O)[C@@H](O)[C@@H](O[C@H]4[C@H](O)[C@@H](O)[C@@H](O[C@H]5[C@H](O)[C@@H](O)[C@@H](O[C@H]6[C@H](O)[C@@H](O)[C@@H](O[C@H]7[C@H](O)[C@@H](O)[C@@H](O[C@H]1[C@H](O)[C@H]2O)O[C@@H]7CO)O[C@@H]6CO)O[C@@H]5CO)O[C@@H]4CO)O[C@@H]3CO [a-Cyclodextrin],1.07
18,O.O=C([O-])CCC(=O)C(=O)[O-].[Na+].[Na+] [a-Ketoglutaric acid disodium salt hydrate],1.26
19,O[C@H]1[C@H](O)[C@@H](O)[C@H](O)[C@@H](O)[C@H]1O [m-Inositol],1.25
20,D-Salicin,1.35
21,Gelatin,0.85
